{
  "source": "patent US7390870B2",
  "about": "“Immune-enhancing peptides” (Posco, priority 2001, dated 2008)",
  "type_in_all_cases": "cell-based",
  "key": {"human monocytes": {"test_system": "human monocytes", "assay": "Superoxide generation in human monocytes (cytochrome c reduction assay)", "parameters": "activity in terms of superoxide generation among the identified peptides: dose or concentration left out as unconfirmed", "protocol": "(§1) For initial screening of the PS-SPCLs, the superoxide anion generation of each peptide pool was evaluated by measuring reduction of cytochrome c using a microtiter 96 well plate ELISA reader (Bio-Tekinstruments, EL312e, Winooski, Vt.) as described (20). The cytochrome c was purchased from Sigma (St. Louis, Mo.). The human monocytes (9×10^5 cells/100 □ of RPMI 1640 medium per well of a 96-well plate) were preincubated with 50 μM cytochrome c at 37° C. for 1 minute and then incubated with the indicated concentrations of peptide pools (final 0.5 nM per peptide sequence for the initial screening). The superoxide generation was measured as change in light absorption at 550 nm over 5 minutes at 1 minute intervals. From at least four independent experiments, peptides with active amino acids at each position were chosen. Superoxide generation by the identified peptides was measured by the same method. Spurious reduction of cytochrome c was ruled out by checking that the peptides-induced ones were superoxide dismutase-inhibitable in all experiments.\nBased on the results of the initial screening of the peptide libraries of Example 4, a peptide pool containing twelve (2×1×1×1×2×3=12) individual hexapeptides were generated by reiterative synthesis. […]\nThe superoxide generated was measured using a cytochrome c reduction assay as described above. […]"}, "[1]": {"test_system": "3Y1 (Rat embryonic fibroblast)", "assay": "[Ca2+]i rise in 3Y1 cells (fura-2)", "conditions": "FIG. 4A; 20 μM peptide", "protocol": "The level of [Ca^2+]i was determined by Grynkiewicz's method using fura-2/AM (21). Briefly, prepared cells were incubated with 3 μM fura-2/AM at 37° C. for 50 minutes in a fresh serum-free RPMI 1640 medium under continuous stirring. 2×10^6 cells were aliquoted for each assay in Ca^2+-free Locke's solution (154 mM NaCl, 5.6 mM KCl1.2 mM MgCl2, 5 mM HEPES, pH 7.3, 10 mM glucose, and 0.2 mM EGTA). The fluorescence changes at the dual excitation wavelengths of 340 nm and 380 nm and the emission wavelength of 500 nm were measured, and the calibrated fluorescence ratio was translated into [Ca^2+]i.\nFrom the fact that HFYLPM, MFYLPM, and HFYLPm stimulate human monocytes, effects of the peptides on other leukocytes such as neutrophils were evaluated. Prepared human primary monocytes, neutrophils, cultured HL60, Jurkat, U937, NIH3T3, 3Y1, 3T3L1, and PC12 cells were loaded with fura-2 and stimulated with effective concentrations of the three peptides (1 μM for monocyte and neutrophil; 10 μM for HL60 and Jurkat; 20 μM for U937, NIH3T3, 3Y1, 3T3L1, and PC12). The peak level of the [Ca^2+]i increase was recorded and superoxide generation was measured using cytochrome c reduction assay. The results are shown FIG. 4. The data of FIG. 4 are presented as means ±S.E. from at least three independent experiments."}, "human neutrophils": {"test_system": "human neutrophils", "assay": "Superoxide generation by human neutrophils (cytochrome c reduction assay)", "conditions": "FIG. 4B; 10 μM of each peptide", "protocol": "as §1\nFrom the fact that HFYLPM, MFYLPM, and HFYLPm stimulate human monocytes, effects of the peptides on other leukocytes such as neutrophils were evaluated. […] The peak level of the [Ca^2+]i increase was recorded and superoxide generation was measured using cytochrome c reduction assay. […]"}},
  "note": "No end group written: not given here.",
  "data": [
    {"substance": "Met-Phe-Tyr-Leu-Pro-Met-CONH2 (MFYLPM-NH2)", "values": [
      {"measurement": "activity in terms of superoxide generation among the identified peptides", "setting": "human monocytes; FIG. 2A, monocytes stimulated", "result": "most active"},
      {"measurement": "concentration of maximal activity, superoxide generation", "setting": "human monocytes; FIG. 2B, concentration dependency", "result": 3.3, "unit": "µM"},
      {"measurement": "[Ca2+]i rise in 3Y1 cells", "setting": "[1]", "result": "no response"},
      {"measurement": "superoxide generation by neutrophils", "setting": "human neutrophils", "result": "generate superoxides"}
    ]}
  ]
}
